Columns and labels:
[1] = molecular target: T1, c-kit kinase (Homo sapiens, UniProt P10721); test: c-Kit biochemical assay, AlphaScreen, 10 μM ATP; details: c-kit biochemical inhibitory activity; read-out: Biochemical activity (IC50 μM) Kit
T1 construct: The c-kit (or kinase domain thereof) is an active kinase in AlphaScreen; poly-Histidine tag (in-house protein only) (cleaved yes); host or cells: E. coli BL21(DE3)RIL, co-expressed with PTP1B
Outline: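 His-tagged c-Kit expressed in E. coli with co-expressed PTP1B (dephosphorylated), tag removed; 0.1 ng per reaction with biotinylated-peptide substrate in 50 mM HEPES pH 7.2, 5 mM MgCl2, 5 mM MnCl2, 5% DMSO, 10 μM ATP, 1 h at room temperature. Phosphorylation detected by AlphaScreen (streptavidin donor, PY20 acceptor beads); IC50 from 8-point 1:3 dilution series.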

[2] = molecular target: T2, c-kit mutant D816V (Homo sapiens, UniProt P10721, D816V/DEL694-753); test: c-Kit mutant D816V biochemical assay, AlphaScreen; details: c-kit D816V biochemical inhibitory activity; read-out: Biochemical activity (IC50 μM) Kit D816V
T2 construct: residues 551-934, kinase insertion domain residues 694-753 deleted; 6x-histidine (N); made in house; host or cells: E. coli Arctic Express (DE3) RIL (Stratagene)
Outline: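 Purified His-tagged c-Kit D816V (E. coli-expressed) assayed in 25 mM HEPES pH 7.2 with Mg/Mn, 5% DMSO and 10 μM ATP, 30 min at room temperature, 8-point 1:3 dilutions. Phosphorylation detected by AlphaScreen with streptavidin donor and PY20 acceptor beads; IC50 from signal versus concentration.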

T2 sequence (P10721 with tags, fused parts or gaps DEL694-753/D816V): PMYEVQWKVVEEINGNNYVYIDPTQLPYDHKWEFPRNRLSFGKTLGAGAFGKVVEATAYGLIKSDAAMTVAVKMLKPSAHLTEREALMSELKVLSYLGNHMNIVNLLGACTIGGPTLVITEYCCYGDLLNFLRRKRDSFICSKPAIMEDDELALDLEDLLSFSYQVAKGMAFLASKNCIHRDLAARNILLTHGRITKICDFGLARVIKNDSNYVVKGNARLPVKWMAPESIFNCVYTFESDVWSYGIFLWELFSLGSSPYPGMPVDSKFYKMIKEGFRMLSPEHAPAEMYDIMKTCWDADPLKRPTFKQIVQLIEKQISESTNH
T1 sequence (P10721 26-976): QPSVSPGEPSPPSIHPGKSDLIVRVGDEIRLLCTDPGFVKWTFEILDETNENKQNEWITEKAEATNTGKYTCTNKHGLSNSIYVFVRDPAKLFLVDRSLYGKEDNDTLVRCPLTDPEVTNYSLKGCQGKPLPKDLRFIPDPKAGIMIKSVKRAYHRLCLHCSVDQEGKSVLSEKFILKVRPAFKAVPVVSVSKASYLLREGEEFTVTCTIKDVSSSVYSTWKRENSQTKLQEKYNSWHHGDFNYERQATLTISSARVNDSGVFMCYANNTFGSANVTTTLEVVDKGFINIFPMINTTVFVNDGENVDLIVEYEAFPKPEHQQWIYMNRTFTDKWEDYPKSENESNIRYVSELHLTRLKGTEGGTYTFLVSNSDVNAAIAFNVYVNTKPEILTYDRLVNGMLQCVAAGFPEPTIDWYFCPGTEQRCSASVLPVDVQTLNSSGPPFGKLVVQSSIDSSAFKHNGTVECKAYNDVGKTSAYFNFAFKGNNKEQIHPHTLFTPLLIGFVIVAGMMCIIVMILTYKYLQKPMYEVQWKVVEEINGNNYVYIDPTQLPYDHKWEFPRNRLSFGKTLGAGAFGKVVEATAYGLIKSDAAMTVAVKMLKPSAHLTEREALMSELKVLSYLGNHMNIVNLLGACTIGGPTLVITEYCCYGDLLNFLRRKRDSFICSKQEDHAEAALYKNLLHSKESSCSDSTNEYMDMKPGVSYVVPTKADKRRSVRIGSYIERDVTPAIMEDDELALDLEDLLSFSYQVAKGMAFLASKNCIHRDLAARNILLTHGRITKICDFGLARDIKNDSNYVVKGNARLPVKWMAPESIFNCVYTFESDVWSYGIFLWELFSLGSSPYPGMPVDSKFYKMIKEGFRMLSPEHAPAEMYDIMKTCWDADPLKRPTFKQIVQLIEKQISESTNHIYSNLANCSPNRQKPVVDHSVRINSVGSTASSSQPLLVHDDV

**Q.** Which IC50 [1] does the source give for C[C@@H]1CN(c2ncnc3cc(-c4ccc(F)cc4)sc23)CCN1C(=O)N[C@H](C)c1ccc(F)cc1 [P-0606, (2R)-N-[(1R)-1-(4-fluorophenyl)ethyl]-4-[6-(4-fluorophenyl)thieno[3,2-d]pyrimidin-4-yl]-2-methyl-piperazine-1-carboxamide] here?
**A.** 10 to 200 µM

**Q.** What about the IC50 [2] of the same molecule?
**A.** 1 to 10 µM

**Q.** Which results are given for Cc1nn(C)cc1-c1cc2ncnc(C3CCNCC3)c2s1 [P-0607, 6-(1,3-dimethylpyrazol-4-yl)-4-(4-piperidyl)thieno[3,2-d]pyrimidine]?
**A.** IC50 [1]: 1 to 10 µM; IC50 [2]: 10 to 200 µM

**Q.** With COc1cccc([C@@H](C)NC(=O)N2CCN(c3ncnc4cc(-c5cn(C)nc5C)sc34)C[C@H]2C)c1 [P-0608, (2R)-4-[6-(1,3-dimethylpyrazol-4-yl)thieno[3,2-d]pyrimidin-4-yl]-N-[(1R)-1-(3-methoxyphenyl)ethyl]-2-methyl-piperazine-1-carboxamide] as the molecule, how does the IC50 [1] read?
**A.** 10 to 200 µM

**Q.** What about the IC50 [2] of the same molecule?
**A.** 0.0001 to 1 µM

**Q.** With Cc1nn(C)cc1-c1cc2ncnc(N3CCN(C(=O)N[C@H](C)c4ccc(F)cc4)[C@H](C)C3)c2s1 [P-0609, (2R)-4-[6-(1,3-dimethylpyrazol-4-yl)thieno[3,2-d]pyrimidin-4-yl]-N-[(1R)-1-(4-fluorophenyl)ethyl]-2-methyl-piperazine-1-carboxamide] as the molecule, how does the IC50 [1] read?
**A.** 1 to 10 µM

**Q.** What about the IC50 [2] of the same molecule?
**A.** 0.0001 to 1 µM

**Q.** Cc1nn(C)cc1-c1cc2ncnc(N3CCN(C(=O)NCc4ccc(F)cc4)[C@H](C)C3)c2s1 [P-0610, (2R)-4-[6-(1,3-dimethylpyrazol-4-yl)thieno[3,2-d]pyrimidin-4-yl]-N-[(4-fluorophenyl)methyl]-2-methyl-piperazine-1-carboxamide] was tested. Which IC50 [1] did it give?
**A.** 1 to 10 µM

**Q.** And the IC50 [2]?
**A.** 0.0001 to 1 µM

**Q.** Which IC50 [1] does the source give for Cc1ccc(S(=O)(=O)Nc2ccc(-c3ncnc4cc(C5=CCNCC5)sc34)cc2)cc1 [P-0611, 4-methyl-N-[4-[6-(1,2,3,6-tetrahydropyridin-4-yl)thieno[3,2-d]pyrimidin-4-yl]phenyl]benzenesulfonamide] here?
**A.** 0.0001 to 1 µM

**Q.** And the IC50 [2]?
**A.** 0.0001 to 1 µM

**Q.** With Cc1nn(C)cc1-c1cc2ncnc(C3=CCN(C(=O)Nc4ccc(Cl)cc4)CC3)c2s1 [P-0612, N-(4-chlorophenyl)-4-[6-(1,3-dimethylpyrazol-4-yl)thieno[3,2-d]pyrimidin-4-yl]-3,6-dihydro-2H-pyridine-1-carboxamide] as the molecule, how does the IC50 [1] read?
**A.** 0.0001 to 1 µM

**Q.** And the IC50 [2]?
**A.** 0.0001 to 1 µM

**Q.** With Cc1nn(C)cc1-c1cc2ncnc(C3=CCN(C(=O)NCc4ccc(F)cc4)CC3)c2s1 [P-0613, 4-[6-(1,3-dimethylpyrazol-4-yl)thieno[3,2-d]pyrimidin-4-yl]-N-[(4-fluorophenyl)methyl]-3,6-dihydro-2H-pyridine-1-carboxamide] as the molecule, how does the IC50 [1] read?
**A.** 1 to 10 µM

**Q.** And the IC50 [2]?
**A.** 0.0001 to 1 µM

**Q.** With Cc1ccc(S(=O)(=O)Nc2ccc(-c3ncnc4cc(C5=CCN(C(=O)OC(C)(C)C)CC5)sc34)cc2)cc1 [P-0614, tert-butyl 4-[4-[4-(p-tolylsulfonylamino)phenyl]thieno[3,2-d]pyrimidin-6-yl]-3,6-dihydro-2H-pyridine-1-carboxylate] as the molecule, how does the IC50 [1] read?
**A.** 1 to 10 µM

**Q.** What about the IC50 [2] of the same molecule?
**A.** 0.0001 to 1 µM

**Q.** What does the source list for O=C(NCc1ccc(F)cc1)N1CCN(c2ncnc3cc(C4=CCNCC4)sc23)CC1 [P-0615, N-[(4-fluorophenyl)methyl]-4-[6-(1,2,3,6-tetrahydropyridin-4-yl)thieno[3,2-d]pyrimidin-4-yl]piperazine-1-carboxamide]?
**A.** IC50 [1]: 1 to 10 µM; IC50 [2]: 0.0001 to 1 µM

**Q.** How did the IC50 [1] turn out when CC(C)(C)OC(=O)N1CC=C(c2cc3ncnc(N4CCN(C(=O)NCc5ccc(F)cc5)CC4)c3s2)CC1 [P-0616, tert-butyl 4-[4-[4-[(4-fluorophenyl)methylcarbamoyl]piperazin-1-yl]thieno[3,2-d]pyrimidin-6-yl]-3,6-dihydro-2H-pyridine-1-carboxylate] was run?
**A.** 1 to 10 µM

**Q.** And the IC50 [2]?
**A.** 0.0001 to 1 µM

**Q.** What does the source list for Cn1cc(-c2cc3ncnc(C4=CC(C)(C)NC(C)(C)C4)c3s2)cn1 [P-0617, 6-(1-methylpyrazol-4-yl)-4-(2,2,6,6-tetramethyl-1,3-dihydropyridin-4-yl)thieno[3,2-d]pyrimidine]?
**A.** IC50 [1]: 10 to 200 µM; IC50 [2]: 10 to 200 µM

**Q.** For Cc1nn(C)c(C)c1-c1cc2ncnc(N3CCN(C(=O)NCc4ccc(F)cc4)CC3)c2s1 [P-0618, N-[(4-fluorophenyl)methyl]-4-[6-(1,3,5-trimethylpyrazol-4-yl)thieno[3,2-d]pyrimidin-4-yl]piperazine-1-carboxamide], which IC50 [1] is on record?
**A.** 1 to 10 µM

**Q.** What about the IC50 [2] of the same molecule?
**A.** 1 to 10 µM

**Q.** How did the IC50 [1] turn out when Cc1nn(C)cc1-c1cc2ncnc(N3CCN(C(=O)NCc4ccc(F)cc4)CC3)c2s1 [P-0619, 4-[6-(1,3-dimethylpyrazol-4-yl)thieno[3,2-d]pyrimidin-4-yl]-N-[(4-fluorophenyl)methyl]piperazine-1-carboxamide] was run?
**A.** 1 to 10 µM

**Q.** And the IC50 [2]?
**A.** 0.0001 to 1 µM

**Q.** Which IC50 [1] does the source give for Cc1c(-c2cc3ncnc(N4CCN(C(=O)NCc5ccc(F)cc5)CC4)c3s2)cnn1C [P-0620, 4-[6-(1,5-dimethylpyrazol-4-yl)thieno[3,2-d]pyrimidin-4-yl]-N-[(4-fluorophenyl)methyl]piperazine-1-carboxamide] here?
**A.** 1 to 10 µM

**Q.** And the IC50 [2]?
**A.** 0.0001 to 1 µM

**Q.** How did the IC50 [1] turn out when Cn1cc(-c2cc3ncnc(-c4ccc(N)nc4)c3s2)cn1 [P-0621, 5-[6-(1-methylpyrazol-4-yl)thieno[3,2-d]pyrimidin-4-yl]pyridin-2-amine] was run?
**A.** 1 to 10 µM

**Q.** What about the IC50 [2] of the same molecule?
**A.** 1 to 10 µM

**Q.** For Cc1cc2ncnc(-c3ccc(NS(C)(=O)=O)cc3)c2s1 [P-0622, N-[4-(6-methylthieno[3,2-d]pyrimidin-4-yl)phenyl]methanesulfonamide], which IC50 [1] is on record?
**A.** 10 to 200 µM

**Q.** And the IC50 [2]?
**A.** 1 to 10 µM

**Q.** Which results are given for Cc1ccc(S(=O)(=O)Nc2ccc(-c3ncnc4cc(C)sc34)cc2)cc1 [P-0623, 4-methyl-N-[4-(6-methylthieno[3,2-d]pyrimidin-4-yl)phenyl]benzenesulfonamide]?
**A.** IC50 [1]: 1 to 10 µM; IC50 [2]: 0.0001 to 1 µM

**Q.** Which results are given for O=C(NCc1ccc(F)cc1)N1CCN(c2ncnc3cc(-c4cnn(CCN5CCOCC5)c4)sc23)CC1 [P-0624, N-[(4-fluorophenyl)methyl]-4-[6-[1-(2-morpholinoethyl)pyrazol-4-yl]thieno[3,2-d]pyrimidin-4-yl]piperazine-1-carboxamide]?
**A.** IC50 [1]: 1 to 10 µM; IC50 [2]: 0.0001 to 1 µM

**Q.** For Cn1cc(-c2cc3ncnc(N4CCN(C(=O)NCc5ccccc5)CC4)c3s2)cn1 [P-0626, N-benzyl-4-[6-(1-methylpyrazol-4-yl)thieno[3,2-d]pyrimidin-4-yl]piperazine-1-carboxamide], which IC50 [1] is on record?
**A.** 10 to 200 µM

**Q.** What about the IC50 [2] of the same molecule?
**A.** 1 to 10 µM

**Q.** With O=C(NCc1ccc(F)cc1)N1CCN(c2ncnc3ccsc23)CC1 [P-0638, N-[(4-fluorophenyl)methyl]-4-thieno[3,2-d]pyrimidin-4-yl-piperazine-1-carboxamide] as the molecule, how does the IC50 [1] read?
**A.** 10 to 200 µM

**Q.** What about the IC50 [2] of the same molecule?
**A.** 10 to 200 µM

**Q.** What does the source list for Cc1cc2c(N3CCN(C(=O)N[C@@H](C)c4cccc(Cl)c4)C(C)(C)C3)ncnc2[nH]1 [P-0641, N-[(1S)-1-(3-chlorophenyl)ethyl]-2,2-dimethyl-4-(6-methyl-7H-pyrrolo[2,3-d]pyrimidin-4-yl)piperazine-1-carboxamide]?
**A.** IC50 [1]: 10 to 200 µM; IC50 [2]: 0.0001 to 1 µM

**Q.** For C[C@H](NC(=O)N1CCN(c2ncnc3[nH]c(-c4ccc(F)cc4)cc23)CC1(C)C)c1ccc(F)cc1 [P-0642, N-[(1S)-1-(4-fluorophenyl)ethyl]-4-[6-(4-fluorophenyl)-7H-pyrrolo[2,3-d]pyrimidin-4-yl]-2,2-dimethyl-piperazine-1-carboxamide], which IC50 [1] is on record?
**A.** 1 to 10 µM

**Q.** And the IC50 [2]?
**A.** 0.0001 to 1 µM

**Q.** How did the IC50 [1] turn out when COc1cc(-c2cc3c(N4CCN(C(=O)N[C@@H](C)c5ccc(F)cc5)C(C)(C)C4)ncnc3[nH]2)ccn1 [P-0643] was run?
**A.** 1 to 10 µM

**Q.** What about the IC50 [2] of the same molecule?
**A.** 0.0001 to 1 µM

**Q.** With Cc1cc2c(N3CCN(C(=O)N[C@@H](C)c4ccc(F)cc4)C(C)(C)C3)ncnc2[nH]1 [P-0644, N-[(1S)-1-(4-fluorophenyl)ethyl]-2,2-dimethyl-4-(6-methyl-7H-pyrrolo[2,3-d]pyrimidin-4-yl)piperazine-1-carboxamide] as the molecule, how does the IC50 [1] read?
**A.** 10 to 200 µM

**Q.** And the IC50 [2]?
**A.** 1 to 10 µM

**Q.** What does the source list for Cc1cc2c(N3CCN(C(=O)N[C@@H](C)c4cccc(OC(F)F)c4)C(C)(C)C3)ncnc2[nH]1 [P-0645, N-[(1S)-1-[3-(difluoromethoxy)phenyl]ethyl]-2,2-dimethyl-4-(6-methyl-7H-pyrrolo[2,3-d]pyrimidin-4-yl)piperazine-1-carboxamide]?
**A.** IC50 [1]: 10 to 200 µM; IC50 [2]: 1 to 10 µM

**Q.** What does the source list for Cc1cc2c(N3CCN(C(=O)N[C@@H](C)c4ccc(F)cc4)[C@H](C)C3)ncnc2[nH]1 [P-0646, (2R)-N-[(1S)-1-(4-fluorophenyl)ethyl]-2-methyl-4-(6-methyl-7H-pyrrolo[2,3-d]pyrimidin-4-yl)piperazine-1-carboxamide]?
**A.** IC50 [1]: 10 to 200 µM; IC50 [2]: 1 to 10 µM

**Q.** How did the IC50 [1] turn out when Cc1cc2c(N3CCN(C(=O)N[C@@H](C)c4cccc(Cl)c4)[C@H](C)C3)ncnc2[nH]1 [P-0647, (2R)-N-[(1S)-1-(3-chlorophenyl)ethyl]-2-methyl-4-(6-methyl-7H-pyrrolo[2,3-d]pyrimidin-4-yl)piperazine-1-carboxamide] was run?
**A.** 1 to 10 µM

**Q.** And the IC50 [2]?
**A.** 0.0001 to 1 µM

**Q.** Cc1cc2c(N3CCN(C(=O)N[C@@H](C)c4cccc(OC(F)F)c4)[C@H](C)C3)ncnc2[nH]1 [P-0648, (2R)-N-[(1S)-1-[3-(difluoromethoxy)phenyl]ethyl]-2-methyl-4-(6-methyl-7H-pyrrolo[2,3-d]pyrimidin-4-yl)piperazine-1-carboxamide] was tested. Which IC50 [1] did it give?
**A.** 10 to 200 µM

**Q.** And the IC50 [2]?
**A.** 0.0001 to 1 µM
